The values that follow come from ChEMBL document CHEMBL3588812, “Thiophene and benzodioxole appended thiazolyl-pyrazoline compounds: Microwave assisted synthesis, antimicrobial and molecular docking studies” (2015).

One assay has as its system Klebsiella pneumoniae. Briefly: Antimicrobial activity against Klebsiella pneumoniae MTCC 109 assessed as inhibition of visual microbial growth incubated for 24 hrs at 37 degC. In kind it is functional. The settings on record: MTCC 109, 24 h.
Assay [1] relates to Staphylococcus aureus. Briefly: Antimicrobial activity against Staphylococcus aureus MTCC 96 assessed as inhibition of visual microbial growth incubated for 24 hrs at 37 degC. The format is functional. The following applies: MTCC 96, 24 h.
The next assay concerns Candida albicans. The assay is described as follows: Antimicrobial activity against Candida albicans MTCC 227 assessed as inhibition of visual microbial growth incubated for 48 to 72 hrs at 28 degC. The format is functional.
The next assay has as its system Salmonella typhimurium. The assay is described as follows: Antimicrobial activity against Salmonella typhimurium MTCC 1251 assessed as inhibition of visual microbial growth incubated for 24 hrs at 37 degC. The format is functional, Salmonella enterica subsp. enterica serovar Typhimurium. The settings on record: Salmonella enterica, MTCC 1251, 24 h.
Another assay relates to Shigella flexneri. The assay is described as follows: Antimicrobial activity against Shigella flexneri MTCC 1457 assessed as inhibition of visual microbial growth incubated for 24 hrs at 37 degC. In kind it is functional. The following applies: MTCC 1457, 24 h.
The next assay relates to Proteus vulgaris. Briefly: Antimicrobial activity against Proteus vulgaris MTCC 1771 assessed as inhibition of visual microbial growth incubated for 24 hrs at 37 degC. In kind it is functional. The settings on record: MTCC 1771, 24 h.
In a further assay the test system is Klebsiella aerogenes. The assay is described as follows: Antimicrobial activity against Enterobacter aerogenes MTCC 111 assessed as inhibition of visual microbial growth incubated for 24 hrs at 37 degC. The format is functional. The settings on record: MTCC 111, 24 h.
Another assay deals with Micrococcus luteus. The assay is described as follows: Antimicrobial activity against Micrococcus luteus MTCC 106 assessed as inhibition of visual microbial growth incubated for 24 hrs at 37 degC. In kind it is functional. The following applies: MTCC 106, 24 h.
In the next assay the test system is Malassezia pachydermatis. Briefly: Antimicrobial activity against Malassezia pachydermatis assessed as inhibition of visual microbial growth incubated for 48 to 72 hrs at 28 degC. In kind it is functional.
The subject of assay [2] is Staphylococcus aureus. Briefly: Antimicrobial activity against methicillin-resistant Staphylococcus aureus assessed as inhibition of visual microbial growth incubated for 24 hrs at 37 degC. The format is functional.

Take `Fc1cc(-c2csc(N3N=C(c4cccs4)CC3c3cc4c(cc3Br)OCO4)n2)ccc1Cl` (stereo not given): the MIC (usually the least concentration at which growth counts as inhibited) in the assay with Klebsiella pneumoniae was determined as 125 µg/mL; with Staphylococcus aureus [1] it was 125 µg/mL; with Candida albicans, 500 µg/mL; in the assay with Salmonella typhimurium, 125 µg/mL; in the assay with Shigella flexneri, 125 µg/mL; in the assay with Proteus vulgaris, 125 µg/mL. Also, the MIC was found to be 250 µg/mL in the assay with Klebsiella aerogenes, 125 µg/mL in the assay with Micrococcus luteus, 500 µg/mL in the assay on Malassezia pachydermatis and 250 µg/mL with Staphylococcus aureus [2].
Regarding `Cc1ccc(-c2csc(N3N=C(c4cccs4)CC3c3cc4c(cc3Br)OCO4)n2)cc1` (stereo not given), the MIC with Klebsiella pneumoniae is 62.5 µg/mL; with Staphylococcus aureus [1], 62.5 µg/mL; with Candida albicans, 125 µg/mL; in the assay with Salmonella typhimurium it was 62.5 µg/mL; with Shigella flexneri, 125 µg/mL; with Proteus vulgaris, 125 µg/mL. Besides, the MIC with Klebsiella aerogenes is 125 µg/mL; with Micrococcus luteus it was 62.5 µg/mL; in the assay on Malassezia pachydermatis, 250 µg/mL; in the assay with Staphylococcus aureus [2], 250 µg/mL.
